Assay results published in ChEMBL document CHEMBL1201862, “PubChem BioAssay data set” (2004).
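Method: 48-hour compound exposure of cells in 96-well plates, five concentrations, linear interpolation of endpoints. GI50: concentration for 50% inhibition of growth.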 Activity calls are given as the source filed them. Cut-off read from the data, not from the text of the source: active = GI50 up to about 1.1 µM and inactive = higher.

Key:
Test in all cases: inhibition of tumour cell growth, NCI panel, 48 h
[1] = test system: SK-MEL-28
[2] = test system: Malme-3M
[3] = test system: ACHN
[4] = test system: EKVX
[5] = test system: NCI-H226
[6] = test system: SK-OV-3
[7] = test system: HOP-62
[8] = test system: KM12
[9] = test system: SK-MEL-5
[10] = test system: HCT-15
[11] = test system: SF-295
[12] = test system: SF-268
[13] = test system: M14
[14] = test system: LOX IMVI
[15] = test system: SK-MEL-2
[16] = test system: TK-10
[17] = test system: UACC-62
[18] = test system: RXF 393
[19] = test system: SNB-75
[20] = test system: 786-0

SMILES	GI50 [1]	GI50 [2]	GI50 [3]	GI50 [4]	GI50 [5]	GI50 [6]	GI50 [7]	GI50 [8]	GI50 [9]	GI50 [10] [µM]	GI50 [11]	GI50 [12]	GI50 [13]	GI50 [14]	GI50 [15]	GI50 [16]	GI50 [17]	GI50 [18]	GI50 [19]	GI50 [20]
CN(C)N1C(=O)S/C(=C\c2ccc([N+](=O)[O-])cc2)C1=O	> 100 µM (inactive)	> 100 µM (inactive)	> 100 µM (inactive)	> 100 µM (inactive)	> 100 µM (inactive)	> 100 µM (inactive)	> 100 µM (inactive)	> 100 µM (inactive)	> 100 µM (inactive)	> 100	> 100 µM (inactive)	> 100 µM (inactive)	> 100 µM (inactive)	> 100 µM (inactive)	> 100 µM (inactive)	> 100 µM (inactive)	> 100 µM (inactive)	> 100 µM (inactive)	0.0458 µM (active)	> 100 µM (inactive)
CCOP(=O)(OCC)C(Nc1ccc(C(=O)O)cc1)c1ccc(C(Nc2ccc(C(=O)O)cc2)P(=O)(OCC)OCC)cc1 (centres undefined)	> 100 µM (inactive)	> 100 µM (inactive)	> 100 µM (inactive)	> 100 µM (inactive)	> 100 µM (inactive)	> 100 µM (inactive)	> 100 µM (inactive)	> 100 µM (inactive)	> 100 µM (inactive)	> 100	> 100 µM (inactive)	> 100 µM (inactive)	> 100 µM (inactive)	> 100 µM (inactive)	> 100 µM (inactive)	> 100 µM (inactive)	> 100 µM (inactive)	> 100 µM (inactive)	> 100 µM (inactive)	> 100 µM (inactive)
CCOC(=O)/C(SC#N)=C(/N)N1CCCC1	> 100 µM (inactive)	> 100 µM (inactive)	> 100 µM (inactive)	> 100 µM (inactive)	> 100 µM (inactive)	> 100 µM (inactive)	> 100 µM (inactive)	> 100 µM (inactive)	> 100 µM (inactive)	> 100	> 100 µM (inactive)	> 100 µM (inactive)	> 100 µM (inactive)	> 100 µM (inactive)	> 100 µM (inactive)	> 100 µM (inactive)	> 100 µM (inactive)	> 100 µM (inactive)	> 94.8 µM (inactive)	> 100 µM (inactive)
Clc1ccccc1C(n1ncc2ccccc21)n1ncc2ccccc21	53.2 µM (inactive)	33.9 µM (inactive)	56.5 µM (inactive)	–	33.7 µM (inactive)	> 10 µM (inactive)	> 100 µM (inactive)	25.7 µM (inactive)	30.4 µM (inactive)	38.3	64.6 µM (inactive)	99.3 µM (inactive)	31 µM (inactive)	49.9 µM (inactive)	33.3 µM (inactive)	99.8 µM (inactive)	> 10 µM (inactive)	28.3 µM (inactive)	17 µM (inactive)	65.9 µM (inactive)
CCC1(O)CC(O)c2c(O)c3c(c(O)c2C1C(=O)OC)C(=O)c1cccc(O)c1C3=O (centres undefined)	11.4 µM (inactive)	1.94 µM (inactive)	3 µM (inactive)	2.18 µM (inactive)	3.4 µM (inactive)	4.49 µM (inactive)	3.22 µM (inactive)	1.1 µM (active)	1.84 µM (inactive)	1.54	2.66 µM (inactive)	2.44 µM (inactive)	2.87 µM (inactive)	2.37 µM (inactive)	3.12 µM (inactive)	7.67 µM (inactive)	3 µM (inactive)	7.67 µM (inactive)	6.31 µM (inactive)	2.75 µM (inactive)
Clc1ccc(OCc2nnc3sc(-c4ccc(-c5ccc(Cl)cc5Cl)o4)nn23)c(Cl)c1	23.8 µM (inactive)	18.8 µM (inactive)	20 µM (inactive)	14.7 µM (inactive)	20.4 µM (inactive)	19.1 µM (inactive)	15.4 µM (inactive)	32.6 µM (inactive)	20.1 µM (inactive)	20.7	16.9 µM (inactive)	15.6 µM (inactive)	25.5 µM (inactive)	19.3 µM (inactive)	16.3 µM (inactive)	19.5 µM (inactive)	25.7 µM (inactive)	14.8 µM (inactive)	15 µM (inactive)	13.3 µM (inactive)
CS(=O)(=O)OCCCNCCCOS(C)(=O)=O	2440 µM (inactive)	1590 µM (inactive)	392 µM (inactive)	1810 µM (inactive)	1680 µM (inactive)	1550 µM (inactive)	729 µM (inactive)	2080 µM (inactive)	1550 µM (inactive)	1460	526 µM (inactive)	879 µM (inactive)	753 µM (inactive)	569 µM (inactive)	1940 µM (inactive)	2020 µM (inactive)	393 µM (inactive)	1610 µM (inactive)	1580 µM (inactive)	881 µM (inactive)
CC(C)=CCc1c(O)c(CC2=C(O)C(CC=C(C)C)(C(=O)C(C)C)C(O)=C(C)C2=O)c(O)c(C(=O)C(C)C)c1O (centres undefined)	13.2 µM (inactive)	8.02 µM (inactive)	11.8 µM (inactive)	17.7 µM (inactive)	7.93 µM (inactive)	18.8 µM (inactive)	11.3 µM (inactive)	7.53 µM (inactive)	7.87 µM (inactive)	11.7	9.33 µM (inactive)	9.86 µM (inactive)	11.4 µM (inactive)	9.48 µM (inactive)	11.5 µM (inactive)	13.2 µM (inactive)	7.98 µM (inactive)	12.1 µM (inactive)	13.6 µM (inactive)	10.7 µM (inactive)
OCCN1CCN(CCO)Cc2ccccc2OCCOc2ccccc2C1	> 100 µM (inactive)	> 100 µM (inactive)	> 100 µM (inactive)	> 100 µM (inactive)	> 100 µM (inactive)	> 100 µM (inactive)	> 100 µM (inactive)	> 100 µM (inactive)	> 100 µM (inactive)	> 100	–	> 100 µM (inactive)	> 100 µM (inactive)	29.8 µM (inactive)	> 100 µM (inactive)	> 100 µM (inactive)	–	> 100 µM (inactive)	33 µM (inactive)	> 100 µM (inactive)
N#CC1C(=O)C(=O)N(c2ccccc2)C1=O (centres undefined)	> 100 µM (inactive)	> 100 µM (inactive)	> 100 µM (inactive)	> 100 µM (inactive)	> 100 µM (inactive)	> 100 µM (inactive)	> 100 µM (inactive)	> 100 µM (inactive)	> 100 µM (inactive)	> 100	> 100 µM (inactive)	> 100 µM (inactive)	> 100 µM (inactive)	> 100 µM (inactive)	> 100 µM (inactive)	> 100 µM (inactive)	> 100 µM (inactive)	> 100 µM (inactive)	81.3 µM (inactive)	> 100 µM (inactive)
N#Cc1nnn(-c2ccc(Br)cc2)c1O	> 100 µM (inactive)	> 100 µM (inactive)	> 100 µM (inactive)	> 100 µM (inactive)	> 100 µM (inactive)	> 100 µM (inactive)	> 100 µM (inactive)	> 100 µM (inactive)	–	> 100	> 100 µM (inactive)	> 100 µM (inactive)	> 100 µM (inactive)	> 100 µM (inactive)	> 100 µM (inactive)	> 100 µM (inactive)	> 100 µM (inactive)	> 100 µM (inactive)	> 100 µM (inactive)	> 100 µM (inactive)
Cn1c(=O)c2nc3c(=O)n(C)c(=O)n(CC(N)=O)c3nc2n(C)c1=O	> 100 µM (inactive)	> 100 µM (inactive)	> 100 µM (inactive)	> 100 µM (inactive)	> 100 µM (inactive)	> 100 µM (inactive)	> 100 µM (inactive)	> 100 µM (inactive)	> 100 µM (inactive)	> 100	> 100 µM (inactive)	> 100 µM (inactive)	> 100 µM (inactive)	> 100 µM (inactive)	> 100 µM (inactive)	> 100 µM (inactive)	> 100 µM (inactive)	> 100 µM (inactive)	> 100 µM (inactive)	> 100 µM (inactive)
COC(=O)[C@H](Cc1ccccc1)NP(=O)(O)OCC1C=CC(n2cc(C)c(=O)[nH]c2=O)O1 (some centres undefined)	–	> 100 µM (inactive)	26.3 µM (inactive)	> 100 µM (inactive)	> 100 µM (inactive)	> 100 µM (inactive)	> 100 µM (inactive)	> 100 µM (inactive)	> 100 µM (inactive)	> 100	> 100 µM (inactive)	> 100 µM (inactive)	> 100 µM (inactive)	> 100 µM (inactive)	> 100 µM (inactive)	> 100 µM (inactive)	> 100 µM (inactive)	> 100 µM (inactive)	> 100 µM (inactive)	> 100 µM (inactive)
C[C@]12CC[C@H](O)CC1=CC[C@@H]1[C@@H]2CC[C@]2(C)C(=O)CC[C@@H]12 [PRASTERONE]	> 100 µM (inactive)	> 100 µM (inactive)	> 100 µM (inactive)	75.2 µM (inactive)	> 100 µM (inactive)	> 100 µM (inactive)	–	> 100 µM (inactive)	> 100 µM (inactive)	> 100	> 100 µM (inactive)	> 100 µM (inactive)	> 100 µM (inactive)	> 100 µM (inactive)	> 100 µM (inactive)	> 100 µM (inactive)	> 100 µM (inactive)	> 100 µM (inactive)	> 100 µM (inactive)	> 100 µM (inactive)
